# “Also recorded” adds a separate entry of the source.
# Tests used:
# [1] = test system: FANCA deficiency lymphocyte cell line (FANCA B-lymphocyte, GM13022); experiment: Proliferation of FANCA deficient lymphocytes under 4 HNE challenge (alamarBlue); format: cell-based
# Description: FANCA deficiency lymphocyte cell line (Fanconi Anemia, Complementation Group A, FANCA B-lymphocyte, GM13022) was purchased from Coriell Cell Repositories (403 Haddon Ave, Camden, N.J. 08103).
# Standard cell culture conditions were used in this experiment. The culture medium (CM) consisted of culture medium RPMI1640, 15% heat-inactivated FBS, 2 mM L-glutamine, 1% Pen/Strep. Cells were suspended in 10-20 ml CM in T25 tissue culture flask in an upright position and incubated in a 37° C., 5% CO2 incubator. Cells were counted daily and diluted with fresh CM to 3×10^5 cells/ml. Cells thawed and maintained in culture for 3-12 days were used in these studies.
# Cell densities of FANCA lymphocytes were determined and cells were diluted in RPMI1640 medium containing 15% FBS, 2 mM L-glutamine, 1% Pen/Strep to desired cell density. 4000 cells in 50-75 μl were plated onto each well in total 48 wells in columns 3-10 and rows B-G. This plating arrangement provided 6-replicates per column for each experimental condition. Plate was then centrifuged at 500 rpm for 2 min to ensure better distribution of cells across the well. For background medium controls, equal volume (50-75 μl) of dilution medium were added to wells B2, C2, D2.
# For minimizing cells/medium drying in sample wells, 150 μl of 1×DPBS was added to each well of the 45 wells surrounding the sample and control wells. Plate was then incubated in a 37° C. 5% CO2 incubator for at least 4 hours before addition of new reagent.
# Compounds were diluted from 20 mM stocks in DMSO with RPMI1640 medium containing 15% FBS. RPMI1640 medium containing 15% FBS and corresponding volume of DMSO was used as controls.
# 4 HNE (64 mM in 100% ethanol) was diluted to desired concentrations with RPMI1640 base medium.
# AlamarBlue was added to each well to final 9.1 or 10% of the total volume in each well. Plate was further incubated in the 37° C. 5% CO2 incubator. The alamarBlue assay is designed to measure quantitatively the proliferation of human and animal cell lines in culture versus incubation time period.
# Plate was removed from the CO2 incubator at a pre-designated time and placed in the microplate reader. The fluorescence level in each well was monitored at Ex 554 nm and Em 590 nm. Afterwards the numeric numbers/units were used for data analyses.
# Fluorescence units in all wells were acquired by the microplate reader at each time point. Data were then exported to scientist's computer equipped with SoftMax ProS software. The average of Background units (Blk, 3×) and the average of each sample set (6 replicates) were determined. For data collected at each time point (cell culture incubation period), the average of Blk units were subtracted from the average of each set of the Sample units. These “net fluorescence unit” data were then presented in a plot consisted of different culture incubation time periods (the x-axis) versus the corresponding net fluorescence units (y-axis).
# The “net fluorescence units” of each sample set were also compared to those of the “control” at each time point. “Control fluorescence units” were considered to be 100% at all the time points. Each set of “net fluorescence units” were divided by the “Control fluorescent units” and multiplied by 100 to obtain corresponding percentages. These “relative percentage” data were then presented in a plot consisted of time points (the x-axis) versus the corresponding relative percentages to control of 100 (y-axis).
# The inhibitory effect of 4 HNE on the proliferation of FANCA lymphocytes was examined. 4000 cells in 75 μl of RPMI1640 medium containing 15% FBS were plated onto each sample well in a 96-well poly D-lysine coated black/clear cell culture plate and the plate was incubated in a 37° C. 5% CO2 incubator for 7 hours.
# Stock of 4 HNE at 64 mM was diluted with RPMI1640 medium to 10 μM, 20 μM, 30 μM, 40 μM, 60 μM, 80 μM, and 120 μM. […]
# ALDH2 = target: T1, ALDH2 (Homo sapiens, UniProt P05091); experiment: ALDH2 activity with 20 μM of the compound (Table 3); format: biochemical; conditions: 20 μM compound
# T1 construct: His-tag (N); made in house; host or cells: E. coli BL21
# T1 sequence (P05091 18-517): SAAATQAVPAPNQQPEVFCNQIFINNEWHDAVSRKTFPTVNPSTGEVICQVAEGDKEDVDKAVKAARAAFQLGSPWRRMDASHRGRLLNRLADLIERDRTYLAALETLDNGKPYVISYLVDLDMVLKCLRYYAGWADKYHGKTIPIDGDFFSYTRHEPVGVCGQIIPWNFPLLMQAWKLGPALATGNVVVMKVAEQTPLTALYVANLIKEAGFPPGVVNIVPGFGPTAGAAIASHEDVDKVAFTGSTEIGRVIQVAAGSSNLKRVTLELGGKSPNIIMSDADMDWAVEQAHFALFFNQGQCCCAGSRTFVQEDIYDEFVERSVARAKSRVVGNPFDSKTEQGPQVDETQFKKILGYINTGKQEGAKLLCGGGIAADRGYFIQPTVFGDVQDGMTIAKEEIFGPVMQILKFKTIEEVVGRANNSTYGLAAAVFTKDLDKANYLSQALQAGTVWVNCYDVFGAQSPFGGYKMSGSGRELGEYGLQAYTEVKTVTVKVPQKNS
# In short: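 Compound was tested at 20 μM. ALDH2 oxidation of acetaldehyde with NAD+ cofactor was followed spectrophotometrically as NADH accumulation at 340 nm. Activity is expressed relative to the enzyme's baseline activity, taken as 100%.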
smiles,measurement,setting,value
COc1ccc(CNC(=O)c2cc(-c3ncccc3CO)ccc2OCC2CC2)cc1F [AC6],duration of cell-protective / cell growth promoting effect in FANCA cells,[1],at least 48 hours
same,relative cell proliferation versus control without AC compounds,"[1]; 3.5 μM 4 HNE, 5 μM and 10 μM AC6, 10 μM AC32, 25 hours to 48 hours after 4 HNE treatment",higher levels of cell growth than “control”; also recorded: more efficient growth than control
same,cell proliferation rate,"[1]; 10 μM AC6, 6 μM 4 HNE, between 25 and 48 hours after 4 HNE treatment",an increase in the cell proliferation rate
same,FANCA-deficiency lymphocyte cell growth versus 4 HNE only or 2 μM ALDH2 activators,"[1]; 10 μM compound, pretreatment 2 hours before 6 μM 4 HNE challenge",higher levels of cell growth
same,FANCA-deficiency lymphocyte cell growth versus 4 HNE only,"[1]; pretreatment 2 hours before 3.5 μM 4 HNE challenge, 2 to 10 μM compound",higher levels of cell growth; also recorded: higher efficacy than AC32
same,activity at 20 µM,ALDH2,> 250%
